Legend:
[1] = target: T1, VEGFR2 (Homo sapiens, UniProt P35968); assay: radiometric kinase assay; assay type: biochemical
T1 construct: gene KDR

[2] = target: T2, MNK1 (Homo sapiens, UniProt Q9BUB5); assay: radiometric kinase assay; assay type: biochemical
T2 construct: gene MKNK1
T2 sequence (Q9BUB5 whole entry): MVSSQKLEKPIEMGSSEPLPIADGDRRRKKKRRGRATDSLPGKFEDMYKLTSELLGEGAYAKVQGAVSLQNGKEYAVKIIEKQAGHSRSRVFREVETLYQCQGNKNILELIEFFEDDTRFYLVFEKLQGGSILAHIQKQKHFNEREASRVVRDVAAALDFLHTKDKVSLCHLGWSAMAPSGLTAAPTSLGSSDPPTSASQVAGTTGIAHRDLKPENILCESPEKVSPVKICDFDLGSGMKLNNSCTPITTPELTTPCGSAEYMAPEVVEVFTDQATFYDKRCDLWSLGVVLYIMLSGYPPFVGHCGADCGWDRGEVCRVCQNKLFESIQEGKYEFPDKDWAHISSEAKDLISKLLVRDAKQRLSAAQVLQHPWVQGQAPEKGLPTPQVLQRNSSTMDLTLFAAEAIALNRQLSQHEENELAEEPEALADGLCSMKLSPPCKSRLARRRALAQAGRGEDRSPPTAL

T1 sequence (P35968 20-1356): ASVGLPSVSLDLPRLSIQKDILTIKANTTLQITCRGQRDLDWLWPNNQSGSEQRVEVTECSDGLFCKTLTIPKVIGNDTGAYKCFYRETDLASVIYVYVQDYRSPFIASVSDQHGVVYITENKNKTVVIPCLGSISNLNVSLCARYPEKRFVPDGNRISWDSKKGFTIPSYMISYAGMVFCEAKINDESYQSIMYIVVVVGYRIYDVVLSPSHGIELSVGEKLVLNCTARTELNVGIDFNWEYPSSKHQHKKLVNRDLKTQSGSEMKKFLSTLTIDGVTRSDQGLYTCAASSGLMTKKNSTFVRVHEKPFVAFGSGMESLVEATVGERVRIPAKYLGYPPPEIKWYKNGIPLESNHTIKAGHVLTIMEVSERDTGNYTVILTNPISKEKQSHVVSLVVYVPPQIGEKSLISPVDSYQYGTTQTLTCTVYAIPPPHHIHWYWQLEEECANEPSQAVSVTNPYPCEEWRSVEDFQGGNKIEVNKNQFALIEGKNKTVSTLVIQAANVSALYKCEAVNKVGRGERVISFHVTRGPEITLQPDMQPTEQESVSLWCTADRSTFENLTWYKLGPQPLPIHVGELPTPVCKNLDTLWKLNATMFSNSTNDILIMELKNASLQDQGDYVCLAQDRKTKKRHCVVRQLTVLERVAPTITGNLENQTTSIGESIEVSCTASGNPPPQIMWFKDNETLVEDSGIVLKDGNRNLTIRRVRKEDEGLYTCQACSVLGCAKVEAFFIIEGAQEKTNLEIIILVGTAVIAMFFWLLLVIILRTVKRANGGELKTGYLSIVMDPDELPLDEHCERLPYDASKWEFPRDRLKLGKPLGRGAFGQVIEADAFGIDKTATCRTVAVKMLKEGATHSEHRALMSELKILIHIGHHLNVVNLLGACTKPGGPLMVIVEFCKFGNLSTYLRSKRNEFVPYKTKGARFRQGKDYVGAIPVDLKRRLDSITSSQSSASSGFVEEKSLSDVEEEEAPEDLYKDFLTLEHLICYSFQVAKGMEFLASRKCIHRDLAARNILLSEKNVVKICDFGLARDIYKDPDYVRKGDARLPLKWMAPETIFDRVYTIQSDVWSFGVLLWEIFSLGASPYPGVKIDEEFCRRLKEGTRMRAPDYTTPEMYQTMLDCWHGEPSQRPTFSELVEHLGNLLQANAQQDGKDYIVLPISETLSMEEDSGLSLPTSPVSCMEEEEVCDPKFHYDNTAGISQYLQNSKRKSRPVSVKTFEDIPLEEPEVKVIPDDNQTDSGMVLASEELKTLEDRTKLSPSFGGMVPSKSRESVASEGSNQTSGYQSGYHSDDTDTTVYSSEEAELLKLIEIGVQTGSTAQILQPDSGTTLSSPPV

Cc1cc(Nc2ncnn3cc(OCCN4CCC(F)(F)C4)c(C)c23)c(=O)n2c1C(=O)NC21CCCC1 [JDB153]
IC50 [1]: 3 nM
IC50 [2]: 26.6 nM

— PMC12041661, “Dual MNK/VEGFR2 Inhibitor JDB153 Enhances Immunotherapeutic Efficiency and Chemosensitivity in Lung Cancer” (MedComm, 2025)
